{"source": "patent US20040248926A1", "about": "“Preventive or remedy for pruritus” (priority 2001, published 2004)", "type_in_all_cases": "in vivo", "key": {"[1]": {"test_system": "poly-L-arginine-induced scratching", "assay": "Inhibitory effect on poly-L-arginine-induced scratching", "conditions": "rats", "method": "The experiment was carried out according to the method of Hayashi, et al. [Eur. J. Pharmacol., Vol. 425, pp. 219-227 (2001)].\nMale Wistar rats of 5 weeks (supplied by Japan SLC) were used in the test. 4 to 6 rats were put in each plastic cage and reared by allowing them to freely take commercially available solid feed and water, in an animal room at 19-25° C., 30-70% humidity and a 12 h lighting cycle (lighting: 7:00 a.m. to 7:00 p.m.) a day.\nEvery rat was shaven on the back, individually put in an acrylic monitor cage (200×145×170 mm), and acclimated therein for 30 minutes. 50 μl of a solution of poly-L-arginine (by Sigma) (4 mg of poly-L-arginine was dissolved in 1 ml of physiological saline) was intracutaneously injected into the interscapular region of each rat. For 30 minutes immediately after this, the behavior of every rat was recorded with a 8-mm video camera recorder. The video was reproduced, and the number of the scratching by its back paws at around the area where the solution had been intracutaneously injected was counted for 30 minutes immediately after the intracutaneous administration. Each rat scratched itself a few times per about one second, and a series of these actions of each rat was counted as one.\nCompound 1 was suspended in aqueous 0.5 w/v % methyl cellulose solution to have a concentration of 0.1 or 1 mg/ml. […]"}, "[2]": {"test_system": "compound 48/80-induced scratching", "assay": "Inhibitory effect on compound 48/80-induced scratching in mice", "conditions": "for number of the scratching: mean ± standard error; for effect on compound 48/80-induced scratching (in words): mice, p.o.", "method": "The experiment was carried out according to the method of Kuraishi, et al. [Eur. J. Pharmacol., Vol. 275, pp. 229-233 (1995)).\nMale ddY mice each weighing 19 to 22 g (supplied by Japan SLC) were used in the test. 25 to 26 mice were put in each plastic cage and reared by allowing them to freely take commercially available solid feed and water, in an animal room at 19-25° C., 30-70% humidity and a 12 h lighting cycle (lighting: 7:00 a.m. to 7:00 p.m.) a day.\n0.1 ml of a solution of compound 48/80 (by Sigma) (0.1 mg of compound 48/80 was dissolved in 1 ml of physiological saline) was subcutaneously injected into the right-side back shoulder of each mouse, and all the mice were individually put in a transparent cage. For 1 hour immediately after this, the behavior of every mouse was recorded with an 8-mm video camera recorder. The video was reproduced, and the number of the scratching by its right hind paw was counted for 1 hour immediately after the subcutaneous administration, at intervals of 5 minutes or 10 minutes, and the data of every 5 or 10 minutes were totaled. Each mouse scratched itself a few times per about one second, and a series of these actions of each mouse was counted as one.\nCompound 1 and Compound 2 were separately suspended in aqueous 0.5 w/v % methyl cellulose solution to have a concentration of 3 mg/ml. The suspension of Compound 1 was further diluted with aqueous 0.5w/v % methyl cellulose solution, and suspensions or solutions for administration each having an intended concentration were prepared. The solvent (aqueous 0.5 w/v % methyl cellulose solution) or the suspension or solution for administration was orally administered to each mouse, 30 minutes before the subcutaneous injection of the compound 48/80, and its volume was 10 ml/kg. The solvent-administered mice were a control group."}, "Acute toxicity test": {"assay": "Acute toxicity test", "conditions": "oral administration, male dd mice, mortality on the seventh day", "method": "The test compound was administered orally or intraperitoneally to three/group male dd mice (body weight: 20±1 g). The minimum lethal dose (MLD) was obtained by observing the mortality on the seventh day after the administration."}}, "data": [{"molecule": "C[C@](O)(C(=O)Nc1cccc2c1C(=O)c1sccc1CS2(=O)=O)C(F)(F)F", "note": "[Compound 1, (S)-(+)-3,3,3-trifluoro-2-hydroxy-2-methyl-N-(5,5,10-trioxo-4,10-dihydrothieno[3,2c][1]benzothiepin-9-yl)propanamide]", "values": [{"measurement": "Number of Scratching Actions for 30 minutes", "setting": "[1]; 10 mg/kg p.o., 2 hours before intracutaneous poly-L-arginine, mean ± standard error, n = 8", "result": "14 ± 3"}, {"measurement": "effect on poly-L-arginine-induced pruritic behavior (in words)", "setting": "[1]; p.o.", "result": "inhibited"}, {"measurement": "number of the scratching", "setting": "[2]; 3 mg/kg p.o., 0-5 min after subcutaneous injection of compound 48/80, totaled, n = 4", "result": "3 ± 1"}, {"measurement": "number of the scratching", "setting": "[2]; 3 mg/kg p.o., 5-10 min after subcutaneous injection, totaled, n = 4", "result": "7 ± 2"}, {"measurement": "number of the scratching", "setting": "[2]; 3 mg/kg p.o., 10-15 min after subcutaneous injection, totaled, n = 4", "result": "9 ± 1"}, {"measurement": "number of the scratching", "setting": "[2]; 3 mg/kg p.o., 15-20 min after subcutaneous injection, totaled, n = 4", "result": "12 ± 4"}, {"measurement": "number of the scratching", "setting": "[2]; 3 mg/kg p.o., 20-25 min after subcutaneous injection, totaled, n = 4", "result": "13 ± 4"}, {"measurement": "number of the scratching", "setting": "[2]; 3 mg/kg p.o., 25-30 min after subcutaneous injection, totaled, n = 4", "result": "14 ± 5"}, {"measurement": "number of the scratching", "setting": "[2]; 3 mg/kg p.o., 30-35 min after subcutaneous injection, totaled, n = 4", "result": "15 ± 5"}, {"measurement": "number of the scratching", "setting": "[2]; 3 mg/kg p.o., 35-40 min after subcutaneous injection, totaled, n = 4", "result": "15 ± 5"}, {"measurement": "number of the scratching", "setting": "[2]; 3 mg/kg p.o., 40-45 min after subcutaneous injection, totaled, n = 4", "result": "17 ± 6"}, {"measurement": "number of the scratching", "setting": "[2]; 3 mg/kg p.o., 45-50 min after subcutaneous injection, totaled, n = 4", "result": "18 ± 6"}, {"measurement": "number of the scratching", "setting": "[2]; 3 mg/kg p.o., 50-55 min after subcutaneous injection, totaled, n = 4", "result": "18 ± 6"}, {"measurement": "number of the scratching", "setting": "[2]; 3 mg/kg p.o., 55-60 min after subcutaneous injection, totaled, n = 4", "result": "18 ± 6"}, {"measurement": "number of the scratching", "setting": "[2]; 10 mg/kg p.o., 0-5 min after subcutaneous injection, totaled, n = 4", "result": "2 ± 1"}, {"measurement": "number of the scratching", "setting": "[2]; 10 mg/kg p.o., 5-10 min after subcutaneous injection, totaled, n = 4", "result": "6 ± 2"}, {"measurement": "number of the scratching", "setting": "[2]; 10 mg/kg p.o., 10-15 min after subcutaneous injection, totaled, n = 4", "result": "8 ± 2"}, {"measurement": "number of the scratching", "setting": "[2]; 10 mg/kg p.o., 15-20 min after subcutaneous injection, totaled, n = 4", "result": "9 ± 2"}, {"measurement": "number of the scratching", "setting": "[2]; 10 mg/kg p.o., 20-25 min after subcutaneous injection, totaled, n = 4", "result": "10 ± 3"}, {"measurement": "number of the scratching", "setting": "[2]; 10 mg/kg p.o., 25-30 min after subcutaneous injection, totaled, n = 4", "result": "10 ± 3"}, {"measurement": "number of the scratching", "setting": "[2]; 10 mg/kg p.o., 30-35 min after subcutaneous injection, totaled, n = 4", "result": "11 ± 3"}, {"measurement": "number of the scratching", "setting": "[2]; 10 mg/kg p.o., 35-40 min after subcutaneous injection, totaled, n = 4", "result": "11 ± 3"}, {"measurement": "number of the scratching", "setting": "[2]; 10 mg/kg p.o., 40-45 min after subcutaneous injection, totaled, n = 4", "result": "12 ± 3"}, {"measurement": "number of the scratching", "setting": "[2]; 10 mg/kg p.o., 45-50 min after subcutaneous injection, totaled, n = 4", "result": "12 ± 3"}, {"measurement": "number of the scratching", "setting": "[2]; 10 mg/kg p.o., 50-55 min after subcutaneous injection, totaled, n = 4", "result": "12 ± 3"}, {"measurement": "number of the scratching", "setting": "[2]; 10 mg/kg p.o., 55-60 min after subcutaneous injection, totaled, n = 4", "result": "12 ± 3"}, {"measurement": "number of the scratching", "setting": "[2]; 30 mg/kg p.o., 0-5 min after subcutaneous injection, totaled, n = 4", "result": "0 ± 0"}, {"measurement": "number of the scratching", "setting": "[2]; 30 mg/kg p.o., 5-10 min after subcutaneous injection, totaled, n = 4", "result": "0 ± 0"}, {"measurement": "number of the scratching", "setting": "[2]; 30 mg/kg p.o., 10-15 min after subcutaneous injection, totaled, n = 4", "result": "1 ± 1"}, {"measurement": "number of the scratching", "setting": "[2]; 30 mg/kg p.o., 15-20 min after subcutaneous injection, totaled, n = 4", "result": "2 ± 1"}, {"measurement": "number of the scratching", "setting": "[2]; 30 mg/kg p.o., 20-25 min after subcutaneous injection, totaled, n = 4", "result": "3 ± 1"}, {"measurement": "number of the scratching", "setting": "[2]; 30 mg/kg p.o., 25-30 min after subcutaneous injection, totaled, n = 4", "result": "3 ± 1"}, {"measurement": "number of the scratching", "setting": "[2]; 30 mg/kg p.o., 30-35 min after subcutaneous injection, totaled, n = 4", "result": "4 ± 1"}, {"measurement": "number of the scratching", "setting": "[2]; 30 mg/kg p.o., 35-40 min after subcutaneous injection, totaled, n = 4", "result": "4 ± 1"}, {"measurement": "number of the scratching", "setting": "[2]; 30 mg/kg p.o., 40-45 min after subcutaneous injection, totaled, n = 4", "result": "4 ± 1"}, {"measurement": "number of the scratching", "setting": "[2]; 30 mg/kg p.o., 45-50 min after subcutaneous injection, totaled, n = 4", "result": "4 ± 1"}, {"measurement": "number of the scratching", "setting": "[2]; 30 mg/kg p.o., 50-55 min after subcutaneous injection, totaled, n = 4", "result": "4 ± 1"}, {"measurement": "number of the scratching", "setting": "[2]; 30 mg/kg p.o., 55-60 min after subcutaneous injection, totaled, n = 4", "result": "4 ± 1"}, {"measurement": "effect on compound 48/80-induced scratching (in words)", "setting": "[2]", "result": "inhibited"}, {"measurement": "minimum lethal dose (MLD)", "setting": "Acute toxicity test", "result": "> 1000", "unit": "mg/kg"}]}, {"molecule": "CC(C)(O)C(=O)Nc1cccc2c1C(=O)c1sccc1CS2(=O)=O", "note": "[Compound 2, 2-hydroxy-2-methyl-N-(5,5,10-trioxo-4,10-dihydrothieno [3,2c][1]benzothiepin-9-yl)propanamide]", "values": [{"measurement": "number of the scratching", "setting": "[2]; 30 mg/kg p.o., 0-10 min after subcutaneous injection, totaled, n = 10", "result": "10 ± 2"}, {"measurement": "number of the scratching", "setting": "[2]; 30 mg/kg p.o., 10-20 min after subcutaneous injection, totaled, n = 10", "result": "11 ± 3"}, {"measurement": "number of the scratching", "setting": "[2]; 30 mg/kg p.o., 20-30 min after subcutaneous injection, totaled, n = 10", "result": "14 ± 2"}, {"measurement": "number of the scratching", "setting": "[2]; 30 mg/kg p.o., 30-40 min after subcutaneous injection, totaled, n = 10", "result": "14 ± 2"}, {"measurement": "number of the scratching", "setting": "[2]; 30 mg/kg p.o., 40-50 min after subcutaneous injection, totaled, n = 10", "result": "14 ± 2"}, {"measurement": "number of the scratching", "setting": "[2]; 30 mg/kg p.o., 50-60 min after subcutaneous injection, totaled, n = 10", "result": "14 ± 2"}, {"measurement": "effect on compound 48/80-induced scratching (in words)", "setting": "[2]", "result": "inhibited"}]}]}
